{"source": "ChEMBL document CHEMBL3525955", "about": "“Glucuronidation of the red clover isoflavone irilone by liver microsomes from different species and human UDP-glucuronosyltransferases” (Drug Metab Dispos, 2011)", "format_in_all_cases": "ADME", "key": {"[1]": {"biological_target": "T1, UDP-glucuronosyltransferase 1A9 (Homo sapiens, UniProt O60656)", "T1 sequence (O60656 whole entry)": "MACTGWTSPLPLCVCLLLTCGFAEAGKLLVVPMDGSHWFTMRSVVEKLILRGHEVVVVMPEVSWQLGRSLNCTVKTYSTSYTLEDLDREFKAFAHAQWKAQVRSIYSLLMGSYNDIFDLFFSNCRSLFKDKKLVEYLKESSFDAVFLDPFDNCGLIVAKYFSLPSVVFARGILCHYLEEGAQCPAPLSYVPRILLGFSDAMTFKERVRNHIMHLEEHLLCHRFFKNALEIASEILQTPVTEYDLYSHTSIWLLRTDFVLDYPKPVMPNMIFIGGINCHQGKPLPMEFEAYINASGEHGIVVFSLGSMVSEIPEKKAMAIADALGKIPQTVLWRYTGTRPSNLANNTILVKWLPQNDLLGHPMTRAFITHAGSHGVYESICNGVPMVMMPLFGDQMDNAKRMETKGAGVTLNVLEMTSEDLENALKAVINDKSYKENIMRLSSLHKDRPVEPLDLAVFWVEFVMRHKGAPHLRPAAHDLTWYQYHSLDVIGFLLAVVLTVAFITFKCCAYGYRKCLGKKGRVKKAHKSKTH", "test": "Activity of human recombinant UGT1A9 at 100 uM", "details": "recombinant enzyme"}, "[2]": {"biological_target": "T2, UDP-glucuronosyltransferase 1A10 (Homo sapiens, UniProt Q9HAW8)", "T2 sequence (Q9HAW8 whole entry)": "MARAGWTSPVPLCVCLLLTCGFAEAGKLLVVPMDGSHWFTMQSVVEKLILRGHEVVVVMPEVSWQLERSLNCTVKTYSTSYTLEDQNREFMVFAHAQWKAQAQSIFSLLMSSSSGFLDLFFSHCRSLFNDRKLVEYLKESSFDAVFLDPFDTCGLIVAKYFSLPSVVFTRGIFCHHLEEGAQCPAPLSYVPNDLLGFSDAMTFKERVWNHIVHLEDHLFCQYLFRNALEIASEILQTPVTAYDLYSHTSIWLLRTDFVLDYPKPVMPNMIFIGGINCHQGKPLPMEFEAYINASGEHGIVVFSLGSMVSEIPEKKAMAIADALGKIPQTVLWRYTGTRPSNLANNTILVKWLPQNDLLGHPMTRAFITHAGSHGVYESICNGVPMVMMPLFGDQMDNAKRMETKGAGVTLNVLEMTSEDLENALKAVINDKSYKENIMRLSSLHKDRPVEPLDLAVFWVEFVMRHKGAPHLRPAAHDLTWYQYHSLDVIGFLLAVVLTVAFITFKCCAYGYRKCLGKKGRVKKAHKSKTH", "test": "Activity of human recombinant UGT1A10 at 100 uM", "details": "recombinant enzyme"}, "[3]": {"biological_target": "T1, UDP-glucuronosyltransferase 1A9", "test": "Activity of human recombinant UGT1A9 assessed as […]-O-4'-monoglucuronide formation incubated for 5 mins prior to UDPGA addition measured after 90 mins by HPLC-DAD analysis", "details": "recombinant enzyme, 1.5 h"}, "[4]": {"biological_target": "T2, UDP-glucuronosyltransferase 1A10", "test": "Activity of human recombinant UGT1A10 assessed as […]-O-4'-monoglucuronide formation incubated for 5 mins prior to UDPGA addition measured after 90 mins by HPLC-DAD analysis", "details": "recombinant enzyme, 1.5 h"}, "[5]": {"biological_target": "T3, UDP-glucuronosyltransferase 1A8 (Homo sapiens, UniProt Q9HAW9)", "T3 sequence (Q9HAW9 whole entry)": "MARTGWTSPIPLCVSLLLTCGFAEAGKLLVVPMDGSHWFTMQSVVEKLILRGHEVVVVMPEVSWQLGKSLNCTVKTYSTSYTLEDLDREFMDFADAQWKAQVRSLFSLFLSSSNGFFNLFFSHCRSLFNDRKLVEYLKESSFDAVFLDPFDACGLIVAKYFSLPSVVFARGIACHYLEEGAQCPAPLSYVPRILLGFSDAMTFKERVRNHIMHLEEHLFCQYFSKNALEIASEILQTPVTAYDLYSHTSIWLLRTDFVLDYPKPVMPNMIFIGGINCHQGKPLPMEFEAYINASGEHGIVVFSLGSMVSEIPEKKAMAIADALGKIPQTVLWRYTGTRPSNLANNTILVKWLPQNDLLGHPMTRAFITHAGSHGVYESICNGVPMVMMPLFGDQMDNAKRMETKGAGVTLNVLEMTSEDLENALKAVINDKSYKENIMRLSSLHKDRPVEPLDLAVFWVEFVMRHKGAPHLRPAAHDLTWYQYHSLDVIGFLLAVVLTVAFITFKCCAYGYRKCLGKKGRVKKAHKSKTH", "test": "Drug level assessed as human recombinant UGT1A8-mediated glucuronidation treated with 25 uM irilone incubated for 5 mins prior to UDPGA addition measured after 90 mins by HPLC-DAD analysis", "details": "recombinant enzyme, 1.5 h"}, "[6]": {"biological_target": "T1, UDP-glucuronosyltransferase 1A9", "test": "Drug level assessed as human recombinant UGT1A9-mediated glucuronidation formation treated with irilone incubated for 5 mins prior to UDPGA addition measured after 90 mins by HPLC-DAD analysis", "details": "recombinant enzyme, 1.5 h"}, "[7]": {"biological_target": "T4, UDP-glucuronosyltransferase 1A1 (Homo sapiens, UniProt P22309)", "T4 sequence (P22309 whole entry)": "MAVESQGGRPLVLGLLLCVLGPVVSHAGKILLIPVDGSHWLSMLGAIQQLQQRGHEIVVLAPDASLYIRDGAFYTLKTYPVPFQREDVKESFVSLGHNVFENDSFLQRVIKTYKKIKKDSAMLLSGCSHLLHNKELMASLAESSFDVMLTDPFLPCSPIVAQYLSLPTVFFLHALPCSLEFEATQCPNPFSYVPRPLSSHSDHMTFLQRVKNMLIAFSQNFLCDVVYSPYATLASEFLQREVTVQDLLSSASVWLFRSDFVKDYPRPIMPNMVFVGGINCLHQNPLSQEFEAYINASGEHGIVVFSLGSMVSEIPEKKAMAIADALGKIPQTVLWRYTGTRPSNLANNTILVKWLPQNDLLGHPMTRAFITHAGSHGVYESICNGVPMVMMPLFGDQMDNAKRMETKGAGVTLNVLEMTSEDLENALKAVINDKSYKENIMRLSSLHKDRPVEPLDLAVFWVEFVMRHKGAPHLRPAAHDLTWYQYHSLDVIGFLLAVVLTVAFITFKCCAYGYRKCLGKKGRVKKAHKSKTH", "test": "Drug level assessed as human recombinant UGT1A1-mediated glucuronidation treated with 25 uM irilone incubated for 5 mins prior to UDPGA addition measured after 90 mins by HPLC-DAD analysis", "details": "recombinant enzyme, 1.5 h"}, "[8]": {"biological_target": "T5, UDP-glucuronosyltransferase 1A7 (Homo sapiens, UniProt Q9HAW7)", "T5 sequence (Q9HAW7 whole entry)": "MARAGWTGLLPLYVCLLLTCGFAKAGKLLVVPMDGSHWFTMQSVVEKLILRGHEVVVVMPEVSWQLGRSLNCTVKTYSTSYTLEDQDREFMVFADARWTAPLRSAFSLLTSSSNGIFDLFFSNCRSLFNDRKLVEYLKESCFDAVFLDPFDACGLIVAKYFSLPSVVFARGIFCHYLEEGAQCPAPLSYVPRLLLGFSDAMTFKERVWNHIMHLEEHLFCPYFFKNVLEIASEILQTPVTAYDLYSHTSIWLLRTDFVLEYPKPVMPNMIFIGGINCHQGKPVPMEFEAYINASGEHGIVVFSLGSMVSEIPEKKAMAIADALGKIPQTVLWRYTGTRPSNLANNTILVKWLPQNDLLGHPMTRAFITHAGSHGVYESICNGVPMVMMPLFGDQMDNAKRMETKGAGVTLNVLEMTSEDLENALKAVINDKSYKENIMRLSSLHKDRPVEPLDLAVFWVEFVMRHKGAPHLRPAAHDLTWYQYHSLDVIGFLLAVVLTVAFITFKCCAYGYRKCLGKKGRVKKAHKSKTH", "test": "Drug level assessed as human recombinant UGT1A7-mediated glucuronidation treated with 25 uM irilone incubated for 5 mins prior to UDPGA addition measured after 90 mins by HPLC-DAD analysis", "details": "recombinant enzyme, 1.5 h"}}, "data": [{"smiles": "O=c1c(-c2ccc(O)cc2)coc2cc(O)cc(O)c12", "note": "[GENISTEIN]", "values": [{"measurement": "Activity", "setting": "[1]", "value": 0.5, "unit": "nmol/mg/min"}, {"measurement": "Activity", "setting": "[2]", "value": 0.5, "unit": "nmol/mg/min"}]}, {"smiles": "COc1c2c(cc3occ(-c4ccc(O)cc4)c(=O)c13)OCO2", "note": "[IRISOLONE]", "values": [{"measurement": "Drug metabolism", "setting": "[3]", "value": "metabolite_not_detected"}, {"measurement": "Drug metabolism", "setting": "[4]", "value": "metabolite_detected"}]}, {"smiles": "O=C(O)[C@H]1O[C@@H](Oc2c3c(cc4occ(-c5ccc(O)cc5)c(=O)c24)OCO3)[C@H](O)[C@@H](O)[C@@H]1O", "values": [{"measurement": "Drug metabolism", "setting": "[5]", "value": "metabolite_detected"}, {"measurement": "Drug metabolism", "setting": "[6]", "value": "metabolite_detected"}, {"measurement": "Drug metabolism", "setting": "[7]", "value": "metabolite_detected"}, {"measurement": "Drug metabolism", "setting": "[8]", "value": "metabolite_detected"}]}, {"smiles": "O=c1c(-c2ccc(O)cc2)coc2cc(O)ccc12", "note": "[DAIDZEIN]", "values": [{"measurement": "Activity", "setting": "[1]", "value": 0.5, "unit": "nmol/mg/min"}, {"measurement": "Activity", "setting": "[2]", "value": 0.5, "unit": "nmol/mg/min"}]}]}
